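How tested: cells in 96-well plates exposed to compound for 48 hours at five concentrations. GI50 = concentration required for 50% inhibition of growth.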 Activity calls are given as the source filed them. Rule as the data show it: active = GI50 up to about 1.1 µM and inactive = higher.
Experiments:
Experiment in all cases: NCI anticancer screen, dose series, 48 h
IGROV-1 = tested on: IGROV-1
UACC-62 = tested on: UACC-62
OVCAR-3 = tested on: OVCAR-3
CCRF-CEM = tested on: CCRF-CEM
SN12C = tested on: SN12C
HT-29 = tested on: HT-29
RXF 393 = tested on: RXF 393
SNB-75 = tested on: SNB-75
CAKI-1 = tested on: CAKI-1
Malme-3M = tested on: Malme-3M
KM12 = tested on: KM12
M14 = tested on: M14
OVCAR-4 = tested on: OVCAR-4
SK-MEL-5 = tested on: SK-MEL-5
NCI-H522 = tested on: NCI-H522
TK-10 = tested on: TK-10
SK-MEL-2 = tested on: SK-MEL-2

Measured: GI50

NC(=O)c1ccccc1NC(=O)C(=O)C(C(=O)c1ccc(Cl)c(Cl)c1)C1OC(=O)c2ccccc21 (stereo not given)
inactive: IGROV-1 60.1 µM | UACC-62 30.8 µM | OVCAR-3 35.1 µM | CCRF-CEM > 100 µM | SN12C 44.4 µM | HT-29 34.8 µM | RXF 393 17 µM | SNB-75 23.4 µM | CAKI-1 52.6 µM | Malme-3M 14.5 µM | KM12 60.4 µM | M14 61.1 µM | OVCAR-4 43.3 µM

COc1cc2c(c(OC)c1)C(=O)C(=O)C(CC1(C)OCCCO1)=C2
inactive: IGROV-1 14.2 µM | SK-MEL-5 6.05 µM | UACC-62 7.91 µM | OVCAR-3 3.8 µM | CCRF-CEM 1.91 µM | SN12C 13.2 µM | HT-29 18.4 µM | NCI-H522 1.4 µM | RXF 393 4.38 µM | SNB-75 19.5 µM | CAKI-1 5.43 µM | Malme-3M 8.2 µM | KM12 16 µM | M14 12 µM | TK-10 6.14 µM | SK-MEL-2 16 µM | OVCAR-4 6.22 µM

O=C(/C=C/c1ccc([N+](=O)[O-])o1)N1CCN(Cc2ccccc2)CC1
inactive: IGROV-1 16.5 µM | SK-MEL-5 10.2 µM | UACC-62 6.82 µM | OVCAR-3 17.7 µM | CCRF-CEM 2.7 µM | SN12C 9.04 µM | HT-29 5.81 µM | NCI-H522 2.82 µM | RXF 393 11.8 µM | SNB-75 14.7 µM | CAKI-1 8.17 µM | KM12 12.1 µM | M14 4.66 µM | TK-10 23.2 µM | OVCAR-4 15.6 µM

CCOc1cc2c(cc1OC)c[n+](C)c1c3cc(OC)c(OC)cc3ccc21
inactive: IGROV-1 > 66.5 µM | SK-MEL-5 > 50.4 µM | UACC-62 > 91 µM | OVCAR-3 > 100 µM | CCRF-CEM 35.9 µM | SN12C 77.4 µM | HT-29 > 100 µM | NCI-H522 > 52.1 µM | RXF 393 34 µM | CAKI-1 > 67.8 µM | Malme-3M > 77.6 µM | KM12 72.4 µM | M14 > 100 µM | TK-10 59.4 µM | SK-MEL-2 33.3 µM | OVCAR-4 > 100 µM

COc1cccc(N2C(=O)c3c(c4[nH]c5ccccc5c4c4ccc(C(C)(C)C)cc34)C2=O)c1
inactive: IGROV-1 > 100 µM | SK-MEL-5 > 100 µM | UACC-62 > 100 µM | OVCAR-3 > 100 µM | CCRF-CEM > 100 µM | SN12C > 100 µM | NCI-H522 > 100 µM | RXF 393 > 100 µM | SNB-75 > 100 µM | CAKI-1 > 100 µM | Malme-3M > 100 µM | KM12 > 100 µM | M14 > 100 µM | TK-10 > 100 µM | SK-MEL-2 > 100 µM | OVCAR-4 > 100 µM

COc1ccc2occ(CCC(=O)O)c2c1
inactive: IGROV-1 > 100 µM | SK-MEL-5 > 100 µM | UACC-62 > 100 µM | OVCAR-3 > 100 µM | CCRF-CEM > 100 µM | SN12C > 100 µM | HT-29 > 100 µM | RXF 393 > 100 µM | SNB-75 > 100 µM | CAKI-1 > 100 µM | M14 > 100 µM | TK-10 > 100 µM | OVCAR-4 > 100 µM

Nc1nc2c(c(=O)[nH]1)NC(CO)CN2 (stereo not given)
inactive: IGROV-1 > 100 µM | UACC-62 84.7 µM | OVCAR-3 > 100 µM | CCRF-CEM 29.9 µM | SN12C > 100 µM | HT-29 44.2 µM | NCI-H522 > 100 µM | RXF 393 > 100 µM | SNB-75 > 100 µM | Malme-3M > 100 µM | KM12 > 100 µM | M14 > 100 µM | TK-10 > 100 µM

Nc1nnc(NC(=O)C2=NS(=O)(=O)c3cc(S(N)(=O)=O)c(Cl)cc3N2)[nH]1
inactive: IGROV-1 > 100 µM | SK-MEL-5 > 100 µM | UACC-62 > 100 µM | OVCAR-3 > 100 µM | CCRF-CEM > 100 µM | SN12C > 100 µM | HT-29 > 100 µM | NCI-H522 > 100 µM | RXF 393 > 100 µM | SNB-75 > 100 µM | CAKI-1 > 100 µM | Malme-3M > 100 µM | KM12 > 100 µM | M14 > 100 µM | TK-10 > 100 µM | OVCAR-4 > 100 µM

CC[N+](C)(CC)CC(C)(C)C(=O)/C=C/c1ccc(/C=C/C(=O)C(C)(C)C[N+](C)(CC)CC)cc1
inactive: IGROV-1 > 100 µM | SK-MEL-5 > 100 µM | UACC-62 > 100 µM | OVCAR-3 > 100 µM | CCRF-CEM > 100 µM | SN12C > 100 µM | HT-29 > 100 µM | NCI-H522 > 100 µM | RXF 393 > 100 µM | SNB-75 > 100 µM | CAKI-1 > 100 µM | Malme-3M > 100 µM | KM12 > 100 µM | M14 > 100 µM | TK-10 > 100 µM | OVCAR-4 > 100 µM

O=C1CC[C@@H](S(=O)(=O)c2ccccc2)[C@H](/C=C/c2ccccc2)O1
inactive: IGROV-1 > 100 µM | SK-MEL-5 > 100 µM | UACC-62 > 100 µM | OVCAR-3 > 100 µM | CCRF-CEM > 100 µM | SN12C > 100 µM | HT-29 > 100 µM | NCI-H522 > 100 µM | RXF 393 > 100 µM | SNB-75 > 100 µM | Malme-3M > 100 µM | KM12 > 100 µM | M14 > 100 µM | TK-10 > 100 µM | OVCAR-4 > 100 µM

CCOC(OCC)c1ccc(/C=C/c2cc(OC)c(OC)c(OC)c2)cc1
inactive: IGROV-1 32.7 µM | SK-MEL-5 15.2 µM | UACC-62 16.4 µM | OVCAR-3 18 µM | CCRF-CEM 12.9 µM | SN12C 18.9 µM | HT-29 16.9 µM | NCI-H522 25.2 µM | RXF 393 19.8 µM | SNB-75 19.5 µM | CAKI-1 24.9 µM | Malme-3M 17.1 µM | KM12 > 10 µM | M14 17.7 µM | TK-10 33.4 µM | OVCAR-4 22.3 µM

C=C(COC(C)=O)CC(/C=C(\C)CC/C=C(\C)CO)OC(C)=O (stereo not given)
inactive: IGROV-1 > 100 µM | SK-MEL-5 > 100 µM | UACC-62 > 100 µM | OVCAR-3 > 100 µM | CCRF-CEM > 100 µM | SN12C > 100 µM | HT-29 > 100 µM | NCI-H522 > 100 µM | RXF 393 > 100 µM | SNB-75 59 µM | KM12 > 100 µM | M14 > 100 µM | TK-10 > 100 µM | SK-MEL-2 > 100 µM | OVCAR-4 > 100 µM

CC1Cc2c(N)nc(NN)nc2NC1=O (stereo not given)
inactive: IGROV-1 > 100 µM | SK-MEL-5 > 100 µM | UACC-62 > 100 µM | OVCAR-3 > 100 µM | CCRF-CEM > 100 µM | SN12C > 100 µM | HT-29 > 100 µM | NCI-H522 > 100 µM | RXF 393 > 100 µM | SNB-75 > 100 µM | Malme-3M > 100 µM | KM12 > 100 µM | M14 > 100 µM | TK-10 > 100 µM
